Laboratory results taken from PubChem BioAssay (NCI).
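How tested: cells in 96-well plates exposed to compound for 48 hours at five concentrations. At the GI50, growth is halved. Definition used: TGI = concentration required for complete inhibition of growth.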

Tests used:
Assay in all cases: growth of human tumour cells (NCI), 48 h
786-0 renal = system: 786-0 renal
A498 renal = system: A498 renal
A549 NSCLC = system: A549 NSCLC
ACHN renal = system: ACHN renal
BT-549 breast = system: BT-549 breast
CCRF-CEM leukemia = system: CCRF-CEM leukemia
COLO 205 colon = system: COLO 205 colon
DU-145 prostate = system: DU-145 prostate
EKVX NSCLC = system: EKVX NSCLC
HCC-2998 colon = system: HCC-2998 colon
HCT-15 colon = system: HCT-15 colon
HL-60(TB) leukemia = system: HL-60(TB) leukemia
HOP-62 NSCLC = system: HOP-62 NSCLC
HOP-92 NSCLC = system: HOP-92 NSCLC
HS 578T breast = system: HS 578T breast
HT29 colon = system: HT29 colon
IGROV1 ovarian = system: IGROV1 ovarian
K-562 leukemia = system: K-562 leukemia
KM12 colon = system: KM12 colon
LOX IMVI melanoma = system: LOX IMVI melanoma
M14 melanoma = system: M14 melanoma
MALME-3M melanoma = system: MALME-3M melanoma
MDA-MB-231 breast = system: MDA-MB-231 breast
MDA-MB-435 = system: MDA-MB-435
MOLT-4 leukemia = system: MOLT-4 leukemia
NCI-H226 lung = system: NCI-H226 lung
NCI-H23 lung = system: NCI-H23 lung
NCI-H460 lung = system: NCI-H460 lung
NCI-H522 lung = system: NCI-H522 lung
NCI/ADR-RES ovarian = system: NCI/ADR-RES ovarian
OVCAR-3 ovarian = system: OVCAR-3 ovarian
OVCAR-4 ovarian = system: OVCAR-4 ovarian
OVCAR-5 ovarian = system: OVCAR-5 ovarian
OVCAR-8 ovarian = system: OVCAR-8 ovarian
PC-3 prostate = system: PC-3 prostate
RPMI-8226 leukemia = system: RPMI-8226 leukemia
RXF 393 renal = system: RXF 393 renal
SF-268 CNS = system: SF-268 CNS
SF-295 CNS = system: SF-295 CNS
SF-539 CNS = system: SF-539 CNS
SK-MEL-2 melanoma = system: SK-MEL-2 melanoma
SK-MEL-28 melanoma = system: SK-MEL-28 melanoma
SK-MEL-5 melanoma = system: SK-MEL-5 melanoma
SK-OV-3 ovarian = system: SK-OV-3 ovarian
SN12C renal = system: SN12C renal
SNB-19 CNS = system: SNB-19 CNS
SNB-75 CNS = system: SNB-75 CNS
SR leukemia = system: SR leukemia
SW-620 colon = system: SW-620 colon
T-47D breast = system: T-47D breast
TK-10 renal = system: TK-10 renal
U251 CNS = system: U251 CNS
UACC-257 melanoma = system: UACC-257 melanoma
UACC-62 melanoma = system: UACC-62 melanoma
UO-31 renal = system: UO-31 renal
MCF7 breast = system: MCF7 breast

## COc1ccc2nc(-c3ccc(Cl)cc3)cc(-c3nnc(SCC(=O)Nc4ccc(/C(C)=N\O)cc4)o3)c2c1
786-0 renal
  GI50: 1.02 µM
  TGI: 3.04 µM
A498 renal
  GI50: 2.94 µM
  TGI: 11 µM
A549 NSCLC
  GI50: 1.23 µM
  TGI: 3.21 µM
ACHN renal
  GI50: 1.85 µM
  TGI: 8.04 µM
BT-549 breast
  GI50: 3.7 µM
  TGI: 18.9 µM
CCRF-CEM leukemia
  GI50: 2.49 µM
  TGI: > 50 µM
COLO 205 colon
  GI50: 1.15 µM
  TGI: 3.53 µM
DU-145 prostate
  GI50: 1.52 µM
  TGI: 5.53 µM
EKVX NSCLC
  GI50: 3.01 µM
  TGI: 15.3 µM
HCC-2998 colon
  GI50: 2.98 µM
  TGI: 31.5 µM
HCT-15 colon
  GI50: 1.88 µM
  TGI: 16.4 µM
HL-60(TB) leukemia
  GI50: > 50 µM
  TGI: > 50 µM
HOP-62 NSCLC
  GI50: 1.63 µM
  TGI: 7 µM
HOP-92 NSCLC
  GI50: 1.77 µM
  TGI: 5.26 µM
HS 578T breast
  GI50: 2.77 µM
  TGI: 17.9 µM
HT29 colon
  GI50: 1.4 µM
  TGI: 5.54 µM
IGROV1 ovarian
  GI50: 3.93 µM
  TGI: 20.6 µM
K-562 leukemia
  GI50: 2.83 µM
  TGI: > 50 µM
KM12 colon
  GI50: 1.53 µM
  TGI: 5.46 µM
LOX IMVI melanoma
  GI50: 1.76 µM
  TGI: 6.92 µM
M14 melanoma
  GI50: 1.81 µM
  TGI: 7.58 µM
MALME-3M melanoma
  GI50: 1.28 µM
  TGI: 3.97 µM
MDA-MB-231 breast
  GI50: 2.05 µM
  TGI: 8.34 µM
MDA-MB-435
  GI50: 1.26 µM
  TGI: 4.08 µM
MOLT-4 leukemia
  GI50: 2.18 µM
  TGI: > 50 µM
NCI-H226 lung
  GI50: 3.86 µM
  TGI: 14.4 µM
NCI-H23 lung
  GI50: 1.38 µM
  TGI: 4.3 µM
NCI-H460 lung
  GI50: 1.1 µM
  TGI: 2.32 µM
NCI-H522 lung
  GI50: 1.2 µM
  TGI: 3.83 µM
NCI/ADR-RES ovarian
  GI50: 1.29 µM
  TGI: 3.75 µM
OVCAR-3 ovarian
  GI50: 1.58 µM
  TGI: 5.47 µM
OVCAR-4 ovarian
  GI50: 0.904 µM
  TGI: 1.84 µM
OVCAR-5 ovarian
  GI50: 2.06 µM
  TGI: 10.2 µM
OVCAR-8 ovarian
  GI50: 1.15 µM
  TGI: 2.78 µM
PC-3 prostate
  GI50: 1.29 µM
  TGI: 2.97 µM
RPMI-8226 leukemia
  GI50: 2.18 µM
  TGI: > 50 µM
RXF 393 renal
  GI50: 1.51 µM
  TGI: 5.97 µM
SF-268 CNS
  GI50: 1.44 µM
  TGI: 5.06 µM
SF-295 CNS
  GI50: 1.09 µM
  TGI: 3.08 µM
SF-539 CNS
  GI50: 3 µM
  TGI: 10.7 µM
SK-MEL-2 melanoma
  GI50: 2.46 µM
  TGI: 9.77 µM
SK-MEL-28 melanoma
  GI50: 1.81 µM
  TGI: 7.63 µM
SK-MEL-5 melanoma
  GI50: 1.71 µM
  TGI: 7.52 µM
SK-OV-3 ovarian
  GI50: 6.23 µM
  TGI: 18.7 µM
SN12C renal
  GI50: 1.8 µM
  TGI: 7.29 µM
SNB-19 CNS
  GI50: 1.18 µM
  TGI: 3.09 µM
SNB-75 CNS
  GI50: 1.08 µM
  TGI: 6.34 µM
SR leukemia
  GI50: 1.72 µM
  TGI: > 50 µM
SW-620 colon
  GI50: 1.15 µM
  TGI: 2.54 µM
T-47D breast
  GI50: 0.981 µM
  TGI: 3.97 µM
TK-10 renal
  GI50: 1.61 µM
  TGI: 8.05 µM
U251 CNS
  GI50: 0.974 µM
  TGI: 1.9 µM
UACC-257 melanoma
  GI50: 2.16 µM
  TGI: 9.51 µM
UACC-62 melanoma
  GI50: 2.89 µM
  TGI: 9.93 µM
UO-31 renal
  GI50: 3.26 µM
  TGI: 20.5 µM

## CCCCCCCCCCCCCCCCCc1cc(Cl)nc(Cl)n1
786-0 renal
  TGI: > 100 µM
A549 NSCLC
  TGI: > 100 µM
ACHN renal
  TGI: > 100 µM
BT-549 breast
  TGI: > 100 µM
CCRF-CEM leukemia
  TGI: > 100 µM
EKVX NSCLC
  TGI: > 100 µM
HCC-2998 colon
  TGI: > 100 µM
HCT-15 colon
  TGI: > 100 µM
HL-60(TB) leukemia
  TGI: > 100 µM
HOP-62 NSCLC
  TGI: > 100 µM
HS 578T breast
  TGI: > 100 µM
HT29 colon
  TGI: > 100 µM
IGROV1 ovarian
  TGI: > 100 µM
K-562 leukemia
  TGI: > 100 µM
KM12 colon
  TGI: > 100 µM
LOX IMVI melanoma
  TGI: > 100 µM
M14 melanoma
  TGI: > 100 µM
MALME-3M melanoma
  TGI: > 100 µM
MCF7 breast
  TGI: > 100 µM
MDA-MB-435
  TGI: > 100 µM
MOLT-4 leukemia
  TGI: > 100 µM
NCI-H226 lung
  TGI: > 100 µM
NCI-H23 lung
  TGI: > 100 µM
NCI-H460 lung
  TGI: > 100 µM
NCI/ADR-RES ovarian
  TGI: > 100 µM
OVCAR-3 ovarian
  TGI: > 100 µM
OVCAR-4 ovarian
  TGI: > 100 µM
OVCAR-5 ovarian
  TGI: > 100 µM
OVCAR-8 ovarian
  TGI: > 100 µM
PC-3 prostate
  TGI: > 100 µM
RPMI-8226 leukemia
  TGI: > 100 µM
RXF 393 renal
  TGI: > 100 µM
SF-268 CNS
  TGI: > 100 µM
SF-295 CNS
  TGI: > 100 µM
SF-539 CNS
  TGI: > 100 µM
SK-MEL-2 melanoma
  TGI: > 100 µM
SK-MEL-28 melanoma
  TGI: > 100 µM
SK-MEL-5 melanoma
  TGI: > 100 µM
SK-OV-3 ovarian
  TGI: > 100 µM
SN12C renal
  TGI: > 100 µM
SNB-19 CNS
  TGI: > 100 µM
SNB-75 CNS
  TGI: > 100 µM
SR leukemia
  TGI: > 100 µM
SW-620 colon
  TGI: > 100 µM
TK-10 renal
  TGI: > 100 µM
U251 CNS
  TGI: > 100 µM
UACC-257 melanoma
  TGI: > 100 µM
UACC-62 melanoma
  TGI: > 100 µM
UO-31 renal
  TGI: > 100 µM

## C#CCn1c(=O)c(I)cn(/C(=C\C(=O)OCC)C(=O)OCC)c1=O
A498 renal
  TGI: 31.9 µM
A549 NSCLC
  TGI: > 100 µM
DU-145 prostate
  TGI: 31.3 µM
HOP-62 NSCLC
  TGI: 33.6 µM
HS 578T breast
  TGI: > 100 µM
KM12 colon
  TGI: 31.7 µM
MDA-MB-435
  TGI: 30.9 µM
NCI-H226 lung
  TGI: 38.2 µM
NCI-H460 lung
  TGI: 39.9 µM
NCI/ADR-RES ovarian
  TGI: 65.1 µM
OVCAR-5 ovarian
  TGI: 40.2 µM
SF-295 CNS
  TGI: 36.8 µM
SF-539 CNS
  TGI: 33.4 µM
SK-MEL-2 melanoma
  TGI: 37.2 µM
SK-OV-3 ovarian
  TGI: 31.8 µM
SNB-19 CNS
  TGI: 64 µM
SNB-75 CNS
  TGI: 30.9 µM
U251 CNS
  TGI: 29.1 µM
UACC-62 melanoma
  TGI: 30.6 µM
